Assay results reported in patent US20020082273A1, “Agents for use in the treatment of alzheimer's disease” (priority 1998, published 2002).
Values joined by “and” are separate entries in the source; they are usually repeats but may differ in a detail not shown here. Identical values can stand only once. “Also recorded” adds a separate entry of the source. Like-named read-outs stand apart in the source and are kept apart here.

Experiments:
[1] = Table 1; K=[ML]/[M][L]; cited from earlier work
[2] = Table 1; K=[ML]/[M][L]; cited from earlier work; remark: listed apart in the source
[3] = Table 1; K=[ML]/[M][L]; cited from earlier work; remark: listed apart in the source
[4] = Table 1; K=[ML]/[M][L]; cited from earlier work; remark: listed apart in the source
[5] = tested on: Aβ1-40 or Aβ1-42 SDS-resistant polymers; assay: Dissolution of in vitro Cu^2+-induced SDS-resistant Aβ polymers; assay type: biochemical, human; conditions: polymers generated at pH 7.4
[6] = Table 1; K=[ML]/[M][L]; cited from earlier work; remark: listed apart in the source
[7] = Table 1; K=[ML]/[M][L]; cited from earlier work; remark: listed apart in the source
[8] = Table 1; K=[ML]/[M][L]; cited from earlier work; remark: listed apart in the source
[9] = oral dose of 500 mg/kg, monkeys; cited from earlier work
[10] = oral dose of 200 mg/kg, dogs; cited from earlier work
[11] = cited from earlier work
[12] = tested on: Aβ deposits of AD-affected brain; assay: Extraction (solubilization) of Aβ from post-mortem AD brain tissue homogenates, western blot densitometry; assay type: biochemical, human
[13] = Dissolving clioquinol: n-decane / PBS partition; assay type: physicochemical
Method: Next, the phases were allowed to separate. The lower phase (PBS) was collected and filtered to remove the residue which had formed at the phase interface upon extraction with the organic solvent. The concentration of clioquinol in the PBS was determined to be 800 nanomolar. This number was arrived at based on two assumptions: […]

[14] = cited from earlier work; remark: listed apart in the source
Aβ1-40 aggregates = target: T1, Aβ1-40 aggregates (Homo sapiens, UniProt P05067); assay: Resolubilization of in vitro metal- or pH-induced Aβ aggregates on filter; assay type: biochemical; conditions: chelator 2 μM in TBS
T1 construct: formed in vitro by the action of Cu^2+ or Zn^2+ upon Aβ1-40 was examined; purchased W. M. Keck Foundation Biotechnology Resource Laboratory (Yale University); host or cells: chemical synthesis
Method: Aggregates were transferred to a 0.2 μ nylon membrane by filtration. […] The membrane was fixed, probed with the anti-Aβ monoclonal antibody 6E10, and developed for exposure to ECL-film. […] Values are expressed as a percentage of Aβ signal after washing with TBS alone.
Aβ (10 ng/well in buffered saline) aggregation was induced by addition of metals (5 μM) or acidic conditions (pH 5.5). Aggregates were transferred to a 0.2 μ nylon membrane by filtration. […] The membrane was then fixed, probed with anti-Aβ monoclonal antibody 6E10 and developed for exposure to ECL-film. […] Values are expressed as a % of Aβ signal remaining on the filter after washing with TBS alone.

[15] = in vivo, cited from earlier work
[16] = oral dose of 200 mg/kg, rats; cited from earlier work
[17] = Clioquinol in humans: expected plasma levels and side effect; assay type: in vivo
[18] = with PBS at 1:1 mixture; assumption; cited from earlier work
[19] = sustained treatment, dose as low as 10 mg/kg/day; cited from earlier work
brain-derived Aβ = assay: Effect of added metals on solubility of brain-derived Aβ; assay type: biochemical, human; conditions: 2 mM in PBS
Method: Aβ in the high speed supernatant was visualized as described above.
The homogenates were spun at 100,000× g for 30 min and the supernatant discarded. […] Aβ in the soluble fraction was visualized as described above.

T1 sequence (P05067 672-711 limits assumed): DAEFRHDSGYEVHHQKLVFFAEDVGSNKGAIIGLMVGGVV

Structure (SMILES): O=C(O)CN(CCN(CC(=O)O)CC(=O)O)CC(=O)O [EDTA, ethylenediaminetetra acetic acid]
- LogK, Ca [1]: 10.7
- LogK, Zn [2]: 16.5
- LogK, Co [3]: 16.5
- LogK, Cu [4]: 18.8
- effect of chelators on amount of SDS-resistant polymers [5]: less effective in destabilizing the polymers
- LogK, Al [6]: 16.5
- LogK, Mg [7]: 8.9
- LogK, Fe [8]: 14.3

Structure (SMILES): Oc1c(I)cc(Cl)c2cccnc12 [clioquinol, 5-chloro-7-iodo-8-hydroxyquinoline]
- plasma levels [9]: 20 to 70 µM
- plasma levels [10]: 10 to 30 µM
- removal of a bolus dose from the brain ([11]; in vivo): almost completely removed from the brain within three hours
- safety ([11]; many mammalian species, including rat and mouse): appears to be safe
- blood levels ([11]; within one hour of ingestion, rats and mice): 1 to 10 µM
- % of total Aβ extracted [12]: 1.85% and 4.5% and 3.4%
- % of total Aβ extracted, + PBS [12]: 0.11% and 2.7% and 1.1%
- Aβ recovered in the soluble phase compared to PBS alone [12]: doubling the recovery of Aβ; also recorded: more than twice
- increase in solubilization of Aβ relative to PBS alone [12]: 2.5 fold
- proportion dissolved in n-decane ([13]; 5.3 grams in 200 milliliter of n-decane): 2%
- concentration in PBS after partition from n-decane ([13]; PBS, pH 7.4, based on two assumptions): 0.8 µM
- excretion half life ([14]; in vivo): 1 to 3 h
- time to peak plasma levels ([14]; oral ingestion): ≤ 30 min
- Cu^2+-induced Aβ precipitate resolubilized (Aβ1-40 aggregates): 85%
- Zn^2+-induced Aβ precipitate resolubilized (Aβ1-40 aggregates): 50%
- pH 5.5-induced Aβ precipitate resolubilized (Aβ1-40 aggregates): 10%
- brain / blood-brain barrier penetration [15]: freely permeable into the brain
- brain / blood-brain barrier penetration ([15]; listed as Clioquinol): crosses the blood brain barrier
- plasma levels [16]: 5 µM
- peak plasma levels ([17]; 100 mg, three or four times a day): about 0.1 μM
- expected plasma level ([17]; humans, within 30 minutes of ingesting 10 mg/kg body weight): 0.5 µM
- partitioning coefficient [18]: 1/1750
- neurological side effect [19]: subacute myclo-optic neuritis

Structure (SMILES): [Mg] [magnesium]
- resolubilization of Aβ in tissue depleted of metals by EGTA (brain-derived Aβ): led to resolubilization of the precipitated Aβ
